{
  "source": "paper PMC5075677",
  "about": "(Medical Gas Research, 2016)",
  "key": {"[1]": {"target": "T1, heme oxygenase-2 (Homo sapiens, UniProt P30519, C265A/C282A)", "T1 sequence (P30519 1-316 C265A/C282A)": "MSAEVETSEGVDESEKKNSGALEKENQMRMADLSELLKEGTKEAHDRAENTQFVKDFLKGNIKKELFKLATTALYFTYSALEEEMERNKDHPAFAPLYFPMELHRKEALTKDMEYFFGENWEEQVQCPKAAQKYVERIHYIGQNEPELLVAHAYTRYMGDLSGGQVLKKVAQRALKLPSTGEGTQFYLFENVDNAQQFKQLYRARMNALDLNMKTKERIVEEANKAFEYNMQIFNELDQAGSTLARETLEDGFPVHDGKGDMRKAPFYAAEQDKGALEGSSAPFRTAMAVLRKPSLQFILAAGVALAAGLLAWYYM", "format": "biochemical"}, "[2]": {"target": "T2, heme oxygenase-2 (Homo sapiens, UniProt P30519)", "T2 sequence (P30519 1-316)": "T1 sequence (P30519 1-316 C265A/C282A) with A265C, A282C", "format": "biochemical"}},
  "note": "Positions count from the first letter of the chain named. Where a name gives a salt, the structure may show the parent alone.",
  "data": [
    {"smiles": "c1ccc(CCn2c(CN3CCCC3)nc3ccccc32)cc1", "note": "[QC-2350, 1-(2-phenylethyl)-2-(pyrrolidin-1-ylmethyl)-1H-benzimidazole dihydrochloride]", "values": [
      {"measurement": "IC50", "setting": "[1]", "result": 29, "unit": "µM"},
      {"measurement": "IC50", "setting": "[2]", "result": 20, "unit": "µM"}
    ]}
  ]
}
